Laboratory results from patent US12590099B2, “Inhibitors of histone deacetylase useful for the treatment or prevention of HIV infection” (Merck Sharp & Dohme LLC, priority 2018, dated 2026).
pIC50: −log10 of the molar value. Where two headings read alike, the source gives them in different places.

Key:
Assay type in all cases: biochemical
HDAC6 = target: T1, HDAC6 (Homo sapiens, UniProt Q9UBN7); experiment: Human HDAC enzyme inhibitor Fluor-de-Lys assay, HDAC6
T1 sequence (Q9UBN7 1-1215): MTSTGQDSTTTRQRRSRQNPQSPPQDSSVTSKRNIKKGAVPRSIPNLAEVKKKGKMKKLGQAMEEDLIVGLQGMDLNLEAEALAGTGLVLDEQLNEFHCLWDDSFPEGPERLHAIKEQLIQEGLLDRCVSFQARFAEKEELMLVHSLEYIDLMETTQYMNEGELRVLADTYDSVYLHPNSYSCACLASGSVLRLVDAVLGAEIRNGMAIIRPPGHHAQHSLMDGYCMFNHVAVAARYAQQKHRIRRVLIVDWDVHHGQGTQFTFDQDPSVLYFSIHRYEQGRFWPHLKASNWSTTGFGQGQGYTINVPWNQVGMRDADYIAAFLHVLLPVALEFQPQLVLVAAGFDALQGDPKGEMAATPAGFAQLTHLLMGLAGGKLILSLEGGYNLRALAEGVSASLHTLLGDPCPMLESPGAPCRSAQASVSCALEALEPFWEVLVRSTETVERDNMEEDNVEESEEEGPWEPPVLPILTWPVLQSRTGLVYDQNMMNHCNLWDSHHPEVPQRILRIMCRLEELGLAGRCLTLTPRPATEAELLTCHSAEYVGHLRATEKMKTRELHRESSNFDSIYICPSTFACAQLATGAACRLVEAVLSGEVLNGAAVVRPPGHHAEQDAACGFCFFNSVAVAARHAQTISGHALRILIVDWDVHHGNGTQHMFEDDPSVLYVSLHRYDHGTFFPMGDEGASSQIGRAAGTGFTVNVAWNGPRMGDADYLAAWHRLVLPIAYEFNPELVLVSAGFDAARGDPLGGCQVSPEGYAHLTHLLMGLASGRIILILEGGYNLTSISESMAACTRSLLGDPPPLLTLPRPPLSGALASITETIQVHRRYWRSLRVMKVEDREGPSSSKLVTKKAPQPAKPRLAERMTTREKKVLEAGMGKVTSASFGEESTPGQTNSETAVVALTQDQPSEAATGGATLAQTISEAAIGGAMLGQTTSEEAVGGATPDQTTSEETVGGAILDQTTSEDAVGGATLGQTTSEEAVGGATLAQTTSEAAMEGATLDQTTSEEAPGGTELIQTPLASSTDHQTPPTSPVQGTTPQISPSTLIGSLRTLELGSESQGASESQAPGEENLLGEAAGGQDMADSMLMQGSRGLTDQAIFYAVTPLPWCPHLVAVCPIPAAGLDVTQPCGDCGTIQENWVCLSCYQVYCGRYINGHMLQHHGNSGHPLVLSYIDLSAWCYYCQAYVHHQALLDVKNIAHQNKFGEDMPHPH

Recombinant human HDAC8 = target: T2, Recombinant human HDAC8 (Homo sapiens, UniProt Q9BY41); experiment: Human HDAC enzyme inhibitor Fluor-de-Lys assay, HDAC8
T2 construct: purchased Enzo Life Sciences BML-SE145-0100
T2 sequence (Q9BY41 1-377): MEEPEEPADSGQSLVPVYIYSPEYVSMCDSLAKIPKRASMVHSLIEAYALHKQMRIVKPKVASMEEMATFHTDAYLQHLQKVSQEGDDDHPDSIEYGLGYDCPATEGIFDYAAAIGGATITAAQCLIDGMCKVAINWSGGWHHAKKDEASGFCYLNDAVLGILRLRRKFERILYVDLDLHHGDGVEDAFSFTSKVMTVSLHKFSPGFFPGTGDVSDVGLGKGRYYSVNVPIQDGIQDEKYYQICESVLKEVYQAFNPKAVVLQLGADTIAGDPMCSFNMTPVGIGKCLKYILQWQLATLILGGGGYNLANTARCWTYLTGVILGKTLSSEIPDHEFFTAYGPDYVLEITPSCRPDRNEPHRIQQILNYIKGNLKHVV

Recombinant human HDAC2 = target: T3, Recombinant human HDAC2 (Homo sapiens, UniProt Q92769); experiment: Human HDAC enzyme inhibitor Fluor-de-Lys assay, HDAC2
T3 construct: Full length human HDAC2-FLAG was expressed in baculovirus infected Sf9 cells; FLAG (C); made in house; host or cells: Sf9 (baculovirus)
Method in brief: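 Fluor-de-Lys format at room temperature (23° C.): compounds titrated 10-point, 1:3, preincubated with HDAC before substrate addition. Developer with excess HDAC inhibitor ends the reaction, and trypsin-liberated AMC fluorescence is the read-out.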

[1] = target: T4, Recombinant human HDAC3/SMRT heterodimer (Homo sapiens, UniProt O15379); experiment: Human HDAC enzyme inhibitor Fluor-de-Lys assay, HDAC3/SMRT
T4 construct: FLAG (C); made in house

[2] = recombinant human HDAC8, Fluor-de-Lys assay
[3] = recombinant human HDAC2, Fluor-de-Lys assay
[4] = recombinant human HDAC3/SMRT, Fluor-de-Lys assay

T4 sequence (O15379 whole entry): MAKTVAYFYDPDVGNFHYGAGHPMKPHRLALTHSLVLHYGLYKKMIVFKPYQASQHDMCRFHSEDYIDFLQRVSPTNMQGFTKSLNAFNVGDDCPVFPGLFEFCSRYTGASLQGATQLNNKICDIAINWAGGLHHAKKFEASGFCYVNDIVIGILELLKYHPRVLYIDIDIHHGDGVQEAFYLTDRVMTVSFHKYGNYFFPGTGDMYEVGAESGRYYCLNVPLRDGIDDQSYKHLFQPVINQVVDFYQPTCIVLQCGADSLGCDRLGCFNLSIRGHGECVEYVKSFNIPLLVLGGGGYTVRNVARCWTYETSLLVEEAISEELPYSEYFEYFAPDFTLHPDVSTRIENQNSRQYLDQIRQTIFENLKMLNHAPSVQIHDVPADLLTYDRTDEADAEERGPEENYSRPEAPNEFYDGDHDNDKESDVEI
T4 sequence (Q9Y618 1-899 partner limits assumed): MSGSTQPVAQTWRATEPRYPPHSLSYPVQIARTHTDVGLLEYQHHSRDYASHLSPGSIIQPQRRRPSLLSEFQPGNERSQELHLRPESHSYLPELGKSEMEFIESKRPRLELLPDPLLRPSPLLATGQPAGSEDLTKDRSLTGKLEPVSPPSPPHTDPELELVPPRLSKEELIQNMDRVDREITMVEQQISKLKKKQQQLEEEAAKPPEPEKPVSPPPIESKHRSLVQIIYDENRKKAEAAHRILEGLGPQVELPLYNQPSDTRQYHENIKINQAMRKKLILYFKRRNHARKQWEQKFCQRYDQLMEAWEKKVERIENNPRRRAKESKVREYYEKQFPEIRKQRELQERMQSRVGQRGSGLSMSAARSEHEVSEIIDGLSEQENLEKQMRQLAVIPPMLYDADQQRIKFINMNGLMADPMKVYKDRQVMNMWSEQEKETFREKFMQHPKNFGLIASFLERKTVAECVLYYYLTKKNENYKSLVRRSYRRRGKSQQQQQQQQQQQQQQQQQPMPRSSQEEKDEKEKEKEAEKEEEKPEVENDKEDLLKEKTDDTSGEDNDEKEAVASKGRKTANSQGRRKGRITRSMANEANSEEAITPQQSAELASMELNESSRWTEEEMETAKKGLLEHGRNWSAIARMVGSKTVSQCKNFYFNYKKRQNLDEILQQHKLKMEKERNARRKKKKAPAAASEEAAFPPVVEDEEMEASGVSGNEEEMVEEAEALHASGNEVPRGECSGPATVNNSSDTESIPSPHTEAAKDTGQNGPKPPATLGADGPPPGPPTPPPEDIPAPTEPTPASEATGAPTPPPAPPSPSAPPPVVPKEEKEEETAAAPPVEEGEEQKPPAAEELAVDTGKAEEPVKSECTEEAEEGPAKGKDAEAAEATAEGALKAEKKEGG
T3 sequence (Q92769 whole entry): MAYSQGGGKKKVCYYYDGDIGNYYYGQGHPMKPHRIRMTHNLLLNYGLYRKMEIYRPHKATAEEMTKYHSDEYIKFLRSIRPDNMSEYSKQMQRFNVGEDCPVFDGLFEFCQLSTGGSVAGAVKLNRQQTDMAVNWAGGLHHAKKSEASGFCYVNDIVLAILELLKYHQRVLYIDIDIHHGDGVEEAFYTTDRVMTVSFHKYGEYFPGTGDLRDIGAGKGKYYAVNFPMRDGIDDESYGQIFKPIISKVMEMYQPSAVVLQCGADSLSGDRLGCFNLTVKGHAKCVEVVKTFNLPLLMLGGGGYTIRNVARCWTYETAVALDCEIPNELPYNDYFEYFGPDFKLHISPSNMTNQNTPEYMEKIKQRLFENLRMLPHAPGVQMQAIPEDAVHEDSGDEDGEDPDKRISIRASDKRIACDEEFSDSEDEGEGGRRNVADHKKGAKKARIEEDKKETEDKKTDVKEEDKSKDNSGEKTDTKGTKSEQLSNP

| SMILES | pIC50 (HDAC6; HDAC6, Fluor-de-Lys assay) | pIC50 (Recombinant human HDAC8; [2]) | pIC50 (Recombinant human HDAC2; [3]) | pIC50 [1, 4] | pIC50 (HDAC6) | pIC50 (Recombinant human HDAC8) | pIC50 (Recombinant human HDAC2) | pIC50 [1] |
| --- | --- | --- | --- | --- | --- | --- | --- | --- |
| CCC(=O)CCCCC[C@H](NC(=O)C1=NOC2(CCN(CC)CC2)C1)c1ncc(-c2cc3ccc(C)nc3cc2F)[nH]1 [Compound 233] | < 6.05 | < 6.05 | 7.60 | 8.06 | – | – | – | – |
| CCC(=O)CCCCC[C@H](NC(=O)C1=NOC2(CCN(C)CC2)C1)c1ncc(-c2ccc(-c3cccnc3)cc2OC)o1 [Compound 222, N-{(1S)-1-[5-(2-methoxy-4-pyridin-3-ylphenyl)-1,3-oxazol-2-yl]-7-oxononyl}-8-methyl-1-oxa-2,8-diazaspiro[4.5]dec-2-ene-3-carboxamide] | < 6.05 | < 6.05 | 7.61 | 8.33 | – | – | – | – |
| CCC(=O)CCCCC[C@H](NC(=O)[C@H]1CC12CCN(C)CC2)c1ncc(-c2ccc3nc(C(F)(F)F)ccc3c2)o1 [Compound 78, (1S)-6-methyl-N-[(1S)-7-oxo-1-{5-[2-(trifluoromethyl)quinolin-6-yl]-1,3-oxazol-2-yl}nonyl]-6-azaspiro[2.5]octane-1-carboxamide] | – | – | – | – | 4.48 | < 4.35 | 7.21 | 7.86 |
| CCC(=O)CCCCC[C@H](NC(=O)CC1CC2(CNC2)C1)c1nnc(-c2cc3ccccc3nc2OC)o1 [Compound 301] | 5.46 | 4.53 | 7.11 | 7.80 | – | – | – | – |
| CCC(=O)CCCCC[C@H](NC(=O)C1CCC2(CC1)CNC2)c1nnc(-c2cc3ccccc3nc2OC)o1 [Compound 299] | 5.63 | 4.56 | 7.45 | 8.18 | – | – | – | – |
| CCC(=O)CCCCC[C@H](NC(=O)C1=NOC2(CCN(CC3CC3)CC2)C1)c1ncc(-c2cc3ccc(C)nc3cc2F)[nH]1 [Compound 234] | < 6.05 | < 6.05 | 7.85 | 8.52 | – | – | – | – |
| CCC(=O)CCCCC[C@H](NC(=O)[C@H]1CC12CCN(C)CC2)c1ncc(-c2cnc(OC)nc2)[nH]1 [Compound 255] | 4.92 | 5.24 | 6.31 | 7.09 | – | – | – | – |
| CCC(=O)CCCCC[C@H](NC(=O)[C@H]1CC12CCN(CC)CC2)c1ncc(-c2ccc(-c3nccs3)cc2)o1 [Compound 93] | – | – | – | – | 6.02 | 4.50 | 7.59 | 8.24 |
| CCC(=O)CCCCC[C@H](NC(=O)[C@H]1CC12CCN(CC1CC1)CC2)c1ncc(-c2cc3ccc(C)nc3cc2F)[nH]1 [Compound 228] | < 6.05 | < 6.05 | 9.22 | 9.72 | – | – | – | – |
| CCC(=O)CCCCC[C@H](NC(=O)[C@H]1CC12CCN(C(C)C)CC2)c1ncc(-c2ccc3c(ccc(=O)n3C)c2)o1 [Compound 96] | – | – | – | – | 5.14 | < 4.35 | 7.35 | 8.00 |
| CCC(=O)CCCCC[C@H](NC(=O)[C@H]1CC12CCN(C)CC2)c1ncc(-c2cnc3c(c2)ncn3C)[nH]1 [Compound 256] | 5.41 | 5.96 | 6.55 | 7.24 | – | – | – | – |
| CCC(=O)CCCCC[C@H](NC(=O)CC1CC2(C1)CN(C)C2)c1ncc(-c2cc3ccccc3nc2O)[nH]1 [Compound 326] | < 5.82 | < 5.35 | 8.05 | 8.80 | – | – | – | – |
| CCC(=O)CCCCC[C@H](NC(=O)[C@H]1CC12CCN(C)CC2)c1nnc(-c2cc3ccccc3nc2OC)o1 [Compound 306] | 5.93 | < 4.35 | 7.24 | – | – | – | – | – |
| CCC(=O)CCCCC[C@H](NC(=O)[C@H]1CC12CCN(C)CC2)c1ncc(-c2ccc(-n3nc(C)cc3C)cc2)[nH]1 [Compound 260] | 4.55 | < 4.82 | 7.28 | – | – | – | – | – |
| CCC(=O)CCCCC[C@H](NC(=O)[C@H]1CC12CCN(C)CC2)c1ncc(-c2cnc(-n3cc(C)cn3)nc2)[nH]1 [Compound 257] | 4.44 | 4.98 | 6.73 | – | – | – | – | – |
| CCC(=O)CCCCC[C@H](NC(=O)[C@H]1CC12CCN(C)CC2)c1ncc(-c2cn(C)c3ccccc23)[nH]1 [Compound 264] | 5.77 | 5.94 | 8.23 | – | – | – | – | – |
| CCC(=O)CCCCC[C@H](NC(=O)[C@H]1CC12CCN(C)CC2)c1ncc(-c2cnc3cccnc3c2)[nH]1 [Compound 259] | 5.50 | 5.21 | 7.02 | – | – | – | – | – |
| CCC(=O)CCCCC[C@H](NC(=O)[C@@H]1CC12CCN(C)CC2)c1nnc(-c2cc3ccccc3nc2OC)o1 [Compound 305] | 6.20 | < 4.35 | 6.80 | – | – | – | – | – |
| CCC(=O)CCCCC[C@H](NC(=O)C1CC12CCN(CC)CC2)c1nc(-c2ccc(F)cc2)[nH]c1-c1ccsc1 (stereo partly drawn) [Compound 250] | 4.66 | 4.42 | 6.72 | – | – | – | – | – |
| CCC(=O)CCCCC[C@H](NC(=O)CC1CC2(C1)CN(C)C2)c1ncc(-c2cc3ccccc3nc2OC)[nH]1 [Compound 314] | 6.39 | 5.59 | 8.29 | – | – | – | – | – |
| CCOc1ncc(-c2cnc([C@H](CCCCCC(=O)CC)NC(=O)[C@H]3CC34CCN(C)CC4)[nH]2)cn1 [Compound 266] | 4.37 | 4.71 | 6.43 | – | – | – | – | – |
| CCC(=O)CCCCC[C@H](NC(=O)[C@H]1CC12CCN(C)CC2)c1ncc(-c2ccnc(N3CCOCC3)c2F)[nH]1 [Compound 261] | 5.61 | 5.34 | 6.99 | – | – | – | – | – |
| CCC(=O)CCCCC[C@H](NC(=O)[C@H]1CC12CN(C)C2)c1ncc(-c2cc3ccc(C)nc3cc2OC)o1 (single isomer, unassigned) [Compound 230] | 6.40 | < 6.05 | 8.57 | – | – | – | – | – |
| CCC(=O)CCCCC[C@H](NC(=O)[C@H]1CC12CCN(C)CC2)c1ncc(-c2ccc(C(=O)NC3CCOC3)cc2)[nH]1 (stereo partly drawn) [Compound 258] | 4.41 | 4.79 | 7.62 | – | – | – | – | – |
| CCC(=O)CCCCC[C@H](NC(=O)[C@@H]1CC12CN(C)C2)c1ncc(-c2cc3ccc(C)nc3cc2OC)o1 (single isomer, unassigned) [Compound 231] | 6.66 | < 6.05 | 7.72 | – | – | – | – | – |
| CCC(=O)CCCCC[C@H](NC(=O)C1CC12CCN(CC)CC2)c1nc(-c2ccc(F)cc2)[nH]c1-c1cnn(C)c1 (stereo partly drawn) [Compound 248] | < 4.35 | 4.65 | 7.62 | – | – | – | – | – |
| CCC(=O)CCCCC[C@H](NC(=O)[C@H]1CC12CCN(C)CC2)c1ncc(-c2ccc3ncoc3c2)[nH]1 [Compound 89] | – | – | – | – | 5.12 | 5.01 | – | 8.64 |
| CCC(=O)CCCCC[C@H](NC(=O)[C@H]1CC12CCN(C(C)C)CC2)c1ncc(-c2cc3ccccc3nc2OC)o1 [Compound 99] | – | – | – | – | 6.96 | 4.48 | 7.75 | – |
| CCC(=O)CCCCC[C@H](NC(=O)[C@H]1CC12CCN(C)CC2)c1ncc(-c2ccc(C)nc2OC)[nH]1 [Compound 268] | 5.75 | 5.22 | 7.76 | – | – | – | – | – |
| CCC(=O)CCCCC[C@H](NC(=O)[C@H]1CC12CCN(C)CC2)c1ncc(-c2ccc(-c3cccnc3)nc2)[nH]1 [Compound 262] | 4.48 | 4.90 | 7.73 | – | – | – | – | – |
